According to patent US11919901B2 (Syndax Pharmaceuticals, Inc., priority 2021, dated 2024):
pEC50, pKi: −log10 of the molar value.

These compounds were tested against Menin-MLL (Homo sapiens (Human), UniProt O00255) (assay: Determination of binding constants (Ki) to Menin-MLL (HTRF)). Conditions: HTRF; 0.25 nM H-FL-Menin, 3.2 nM FITC-MLL-4-43, 24 hr incubation.
Menin-MLL, sequence (O00255 whole entry): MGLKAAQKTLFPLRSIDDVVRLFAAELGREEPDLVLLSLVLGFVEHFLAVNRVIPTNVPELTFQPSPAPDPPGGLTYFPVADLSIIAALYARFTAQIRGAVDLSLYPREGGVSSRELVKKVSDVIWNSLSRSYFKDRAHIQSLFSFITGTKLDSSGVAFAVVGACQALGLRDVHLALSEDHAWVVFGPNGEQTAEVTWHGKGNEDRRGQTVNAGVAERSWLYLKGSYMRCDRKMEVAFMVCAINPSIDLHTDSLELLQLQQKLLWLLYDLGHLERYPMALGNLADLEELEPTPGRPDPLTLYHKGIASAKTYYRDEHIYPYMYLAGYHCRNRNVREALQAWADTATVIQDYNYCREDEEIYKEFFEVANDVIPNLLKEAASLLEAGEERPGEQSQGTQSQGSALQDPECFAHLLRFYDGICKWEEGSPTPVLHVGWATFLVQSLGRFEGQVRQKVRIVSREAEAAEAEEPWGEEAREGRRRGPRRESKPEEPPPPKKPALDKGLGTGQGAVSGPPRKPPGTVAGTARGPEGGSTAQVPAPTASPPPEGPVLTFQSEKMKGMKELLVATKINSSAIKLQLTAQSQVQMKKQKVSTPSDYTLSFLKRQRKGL
In the case of CC(C)N(C(=O)c1cc(F)ccc1Oc1cncnc1N1CC2(CCN(C[C@@H]3CC[C@@H](NS(=O)(=O)C(C)C)CO3)CC2)C1)[C@@H]1CCOC1 [Compound 132, 5-Fluoro-N-i sopropyl-2-((4-(7-(((2S,5R)-5-((1-methylethyl)sulfonamido)tetrahydro-2H-pyran-2-yl)methyl)-2,7-diazaspiro[3.5]nonan-2-yl)pyrimidin-5-yl)oxy)-N-((R)-tetrahydrofuran-3-yl)benzamide], the pEC50 was > 7.30.
CCS(=O)(=O)N[C@@H]1CC[C@@H](CN2CCC3(CC2)CN(c2ncncc2Oc2ccc(F)cc2C(=O)N(CC(F)(F)F)C(C)C)C3)OC1 [Compound 152, 2-((4-(7-(((2S,5R)-5-(Ethylsulfonamido)tetrahydro-2H-pyran-2-yl)methyl)-2,7-diazaspiro[3.5]nonan-2-yl)pyrimidin-5-yl)oxy)-5-fluoro-N-isopropyl-N-(2,2,2-trifluoroethyl)benzamide] was tested, and the pEC50 was > 7.30.

Same assay, conditions: HTRF; 0.25 nM H-FL-Menin, 3.2 nM FITC-MLL-4-43, 24 hr incubation; read-out: Menin-MLL Ki HTRF Assay: Ki
CC(C)N(C(=O)c1cc(F)ccc1Oc1cncnc1N1CC2(CCN(C[C@@H]3CC[C@@H](NS(=O)(=O)C(C)C)CO3)CC2)C1)[C@@H]1CCOC1 [Compound 132, 5-Fluoro-N-i sopropyl-2-((4-(7-(((2S,5R)-5-((1-methylethyl)sulfonamido)tetrahydro-2H-pyran-2-yl)methyl)-2,7-diazaspiro[3.5]nonan-2-yl)pyrimidin-5-yl)oxy)-N-((R)-tetrahydrofuran-3-yl)benzamide] was tested, and the pKi was > 9.00.
Cc1nc(S(=O)(=O)N[C@@H]2CC[C@@H](CN3CCC4(CC3)CN(c3ncncc3Oc3ccc(F)cc3C(=O)N(C(C)C)[C@@H]3CCOC3)C4)OC2)cs1 [Compound 133, 5-Fluoro-N-isopropyl-2-((4-(7-(((2S,5R)-5-((2-methylthiazole)-4-sulfonamido)tetrahydro-2H-pyran-2-yl)methyl)-2,7-diazaspiro[3.5]nonan-2-yl)pyrimidin-5-yl)oxy)-N-((R)-tetrahydrofuran-3-yl)benzamide] was tested, and the pKi was > 9.00.
In the case of Cc1nc(S(=O)(=O)N[C@@H]2CC[C@@H](CN3CCC4(CC3)CN(c3ncncc3Oc3ccc(F)cc3C(=O)N(C(C)C)[C@H]3CCOC3)C4)OC2)cs1 [Compound 135, 5-Fluoro-N-isopropyl-2-((4-(7-(((2S,5R)-5-((2-methylthiazole)-4-sulfonamido)tetrahydro-2H-pyran-2-yl)methyl)-2,7-diazaspiro[3.5]nonan-2-yl)pyrimidin-5-yl)oxy)-N-((S)-tetrahydrofuran-3-yl)benzamide], the pKi was > 9.00.
For CC(C)N(C)C(=O)c1cc(F)ccc1Oc1cncnc1N1CC2(CCN(C[C@@H]3CC[C@@H](NS(=O)(=O)N(C)C)CO3)CC2)C1 [Compound 137, 2-((4-(7-(((2S,5R)-5-((N,N-Dimethylsulfamoyl)amino)tetrahydro-2H-pyran-2-yl)methyl)-2,7-diazaspiro[3.5]nonan-2-yl)pyrimidin-5-yl)oxy)-5-fluoro-N-isopropyl-N-methylbenzamide], the pKi was > 9.00.
For CC(C)N(C)C(=O)c1cc(F)ccc1Oc1cncnc1N1CC2(CCN(C[C@@H]3CC[C@@H](NS(=O)(=O)c4cnn(C)c4)CO3)CC2)C1 [Compound 139, 5-Fluoro-N-isopropyl-N-methyl-2-((4-(7-(((2S,5R)-5-((1-methyl-1H-pyrazole)-4-sulfonamido)tetrahydro-2H-pyran-2-yl)methyl)-2,7-diazaspiro[3.5]nonan-2-yl)pyrimidin-5-yl)oxy)benzamide], the pKi was > 9.00.
In the case of CCN(C(=O)c1cc(F)ccc1Oc1cncnc1N1CC2(CCN(C[C@@H]3CC[C@@H](NS(=O)(=O)N(C)CC)CO3)CC2)C1)C(C)C [Compound 140, N-Ethyl-2-((4-(7-(((2S,5R)-5-((N-ethyl-N-methylsulfamoyl)amino)tetrahydro-2H-pyran-2-yl)methyl)-2,7-diazaspiro[3.5]nonan-2-yl)pyrimidin-5-yl)oxy)-5-fluoro-N-isopropylbenzamide], the pKi was > 9.00.
For CC(C)NS(=O)(=O)N[C@@H]1CC[C@@H](CN2CCC3(CC2)CN(c2ncncc2Oc2ccc(F)cc2C(=O)N(CC(F)F)C(C)C)C3)OC1 [Compound 150, N-(2,2-Difluoroethyl)-5-fluoro-N-isopropyl-2-((4-(7-(((2S,5R)-5-((N-isopropylsulfamoyl)amino)tetrahydro-2H-pyran-2-yl)methyl)-2,7-diazaspiro[3.5]nonan-2-yl)pyrimidin-5-yl)oxy)benzamide], the pKi was > 9.00.
CCCNS(=O)(=O)N[C@@H]1CC[C@@H](CN2CCC3(CC2)CN(c2ncncc2Oc2ccc(F)cc2C(=O)N(CC(F)F)C(C)C)C3)OC1 [Compound 151, N-(2,2-Difluoroethyl)-5-fluoro-N-isopropyl-2-((4-(7-(((2S,5R)-5-((N-propylsulfamoyl)amino)tetrahydro-2H-pyran-2-yl)methyl)-2,7-diazaspiro[3.5]nonan-2-yl)pyrimidin-5-yl)oxy)benzamide] was tested, and the pKi was > 9.00.
With CCS(=O)(=O)N[C@@H]1CC[C@@H](CN2CCC3(CC2)CN(c2ncncc2Oc2ccc(F)cc2C(=O)N(CC(F)(F)F)C(C)C)C3)OC1 [Compound 152, 2-((4-(7-(((2S,5R)-5-(Ethylsulfonamido)tetrahydro-2H-pyran-2-yl)methyl)-2,7-diazaspiro[3.5]nonan-2-yl)pyrimidin-5-yl)oxy)-5-fluoro-N-isopropyl-N-(2,2,2-trifluoroethyl)benzamide] the pKi was > 9.00.
For C[C@@H]1COC[C@@H](C)N1C(=O)c1cc(F)ccc1Oc1cncnc1N1CC2(CCN(C[C@@H]3CC[C@@H](NS(=O)(=O)NCC(F)(F)F)CO3)CC2)C1 [Compound 157, {[(3R,6S)-6-{[2-(5-{2-[(3R,5R)-3,5-Dimethylmorpholine-4-carbonyl]-4-fluorophenoxy}pyrimidin-4-yl)-2,7-diazaspiro[3.5]nonan-7-yl]methyl}oxan-3-yl]sulfamoyl}(2,2,2-trifluoroethyl)amine], the pKi was > 9.00.
In the case of C[C@@H]1COC[C@@H](C)N1C(=O)c1cc(F)ccc1Oc1cncnc1N1CC2(CCN(C[C@@H]3CC[C@@H](NS(=O)(=O)NC4CC4)CO3)CC2)C1 [Compound 159, N-[(3R,6S)-6-{[2-(5-{2-[(3R,5R)-3,5-Dimethylmorpholine-4-carbonyl]-4-fluorophenoxy}pyrimidin-4-yl)-2,7-diazaspiro[3.5]nonan-7-yl]methyl}oxan-3-yl](cyclopropylamino)sulfonamide], the pKi was > 9.00.
In the case of C[C@@H]1COC[C@H](C)N1C(=O)c1cc(F)ccc1Oc1cncnc1N1CC2(CCN(C[C@@H]3CC[C@@H](NS(=O)(=O)N(C)C)CO3)CC2)C1 [Compound 160, {[(3R,6S)-6-{[2-(5-{2-[(3R,5S)-3,5-Dimethylmorpholine-4-carbonyl]-4-fluorophenoxy}pyrimidin-4-yl)-2,7-diazaspiro[3.5]nonan-7-yl]methyl}oxan-3-yl]sulfamoyl}dimethylamine], the pKi was > 9.00.
For C[C@@H]1COC[C@H](C)N1C(=O)c1cc(F)ccc1Oc1cncnc1N1CC2(CCN(C[C@@H]3CC[C@@H](NS(=O)(=O)NCC(F)(F)F)CO3)CC2)C1 [Compound 162, {[(3R,6S)-6-{[2-(5-{2-[(3R,5S)-3,5-Dimethylmorpholine-4-carbonyl]-4-fluorophenoxy}pyrimidin-4-yl)-2,7-diazaspiro[3.5]nonan-7-yl]methyl}oxan-3-yl]sulfamoyl}(2,2,2-trifluoroethyl)amine], the pKi was > 9.00.
For C[C@@H]1COC[C@H](C)N1C(=O)c1cc(F)ccc1Oc1cncnc1N1CC2(CCN(C[C@@H]3CC[C@@H](NS(=O)(=O)NC4CC4)CO3)CC2)C1 [Compound 163, N-[(3R,6S)-6-{[2-(5-{2-[(3R,5S)-3,5-Dimethylmorpholine-4-carbonyl]-4-fluorophenoxy}pyrimidin-4-yl)-2,7-diazaspiro[3.5]nonan-7-yl]methyl}oxan-3-yl](cyclopropylamino)sulfonamide], the pKi was > 9.00.
In the case of CC(C)N(C(=O)c1cc(F)ccc1Oc1cncnc1N1CC2(CCN(C[C@@H]3CC[C@@H](NS(C)(=O)=O)CO3)CC2)C1)[C@@H]1CCOC1 [Compound 166, 5-Fluoro-N-isopropyl-2-((4-(7-(((2S,5R)-5-(methylsulfonamido)tetrahydro-2H-pyran-2-yl)methyl)-2,7-diazaspiro[3.5]nonan-2-yl)pyrimidin-5-yl)oxy)-N-((R)-tetrahydrofuran-3-yl)benzamide], the pKi was > 9.00.
For CC(C)N(C(=O)c1cc(F)ccc1Oc1cncnc1N1CC2(CCN(C[C@@H]3CC[C@@H](NS(=O)(=O)N4CCC4)CO3)CC2)C1)[C@@H]1CCOC1 [Compound 168, 2-((4-(7-(((2S,5R)-5-(Azetidine-1-sulfonamido)tetrahydro-2H-pyran-2-yl)methyl)-2,7-diazaspiro[3.5]nonan-2-yl)pyrimidin-5-yl)oxy)-5-fluoro-N-isopropyl-N-((R)-tetrahydrofuran-3-yl)benzamide], the pKi was > 9.00.
CC(C)N(C(=O)c1cc(F)ccc1Oc1cncnc1N1CC2(CCN(C[C@@H]3CC[C@@H](NS(=O)(=O)N4CCCC4)CO3)CC2)C1)[C@@H]1CCOC1 [Compound 169, 5-Fluoro-N-isopropyl-2-((4-(7-(((2S,5R)-5-(pyrrolidine-1-sulfonamido)tetrahydro-2H-pyran-2-yl)methyl)-2,7-diazaspiro[3.5]nonan-2-yl)pyrimidin-5-yl)oxy)-N-((R)-tetrahydrofuran-3-yl)benzamide] was tested, and the pKi was > 9.00.
With CCN(C)S(=O)(=O)N[C@@H]1CC[C@@H](CN2CCC3(CC2)CN(c2ncncc2Oc2ccc(F)cc2C(=O)N(C(C)C)[C@@H]2CCOC2)C3)OC1 [Compound 170, 2-((4-(7-(((2S,5R)-5-((N-Ethyl-N-methylsulfamoyl)amino)tetrahydro-2H-pyran-2-yl)methyl)-2,7-diazaspiro[3.5]nonan-2-yl)pyrimidin-5-yl)oxy)-5-fluoro-N-isopropyl-N-((R)-tetrahydrofuran-3-yl)benzamide] the pKi was > 9.00.
In the case of CC(C)N(C(=O)c1cc(F)ccc1Oc1cncnc1N1CC2(CCN(C[C@@H]3CC[C@@H](NS(=O)(=O)NCC(F)(F)F)CO3)CC2)C1)[C@@H]1CCOC1 [Compound 171, 5-Fluoro-N-isopropyl-N-((R)-tetrahydrofuran-3-yl)-2-((4-(7-(((2S,5R)-5-((N-(2,2,2-trifluoroethyl)sulfamoyl)amino)tetrahydro-2H-pyran-2-yl)methyl)-2,7-diazaspiro[3.5]nonan-2-yl)pyrimidin-5-yl)oxy)benzamide], the pKi was > 9.00.
For CCNS(=O)(=O)N[C@@H]1CC[C@@H](CN2CCC3(CC2)CN(c2ncncc2Oc2ccc(F)cc2C(=O)N(C(C)C)[C@@H]2CCOC2)C3)OC1 [Compound 172, 2-((4-(7-(((2S,5R)-5-((N-ethylsulfamoyl)amino)tetrahydro-2H-pyran-2-yl)methyl)-2,7-diazaspiro[3.5]nonan-2-yl)pyrimidin-5-yl)oxy)-5-fluoro-N-isopropyl-N-((R)-tetrahydrofuran-3-yl)benzamide], the pKi was > 9.00.
CC(C)N(C(=O)c1cc(F)ccc1Oc1cncnc1N1CC2(CCN(C[C@@H]3CC[C@@H](NS(C)(=O)=O)CO3)CC2)C1)[C@H]1CCOC1 [Compound 173, 5-Fluoro-N-isopropyl-2-((4-(7-(((2S,5R)-5-(methylsulfonamido)tetrahydro-2H-pyran-2-yl)methyl)-2,7-diazaspiro[3.5]nonan-2-yl)pyrimidin-5-yl)oxy)-N-((S)-tetrahydrofuran-3-yl)benzamide] was tested, and the pKi was > 9.00.
